# Experimental data: US11208400B2, “Substituted 6-(1H-pyrazol-1-yl)pyrimidin-4-amine derivatives and uses thereof” (Bayer Aktiengesellschaft, priority 2016, dated 2021)
# Target: T1, human Npt2a (Homo sapiens, UniProt Q06495)
# T1 construct: expressed in transfected cells
# T1 sequence (Q06495 1-639): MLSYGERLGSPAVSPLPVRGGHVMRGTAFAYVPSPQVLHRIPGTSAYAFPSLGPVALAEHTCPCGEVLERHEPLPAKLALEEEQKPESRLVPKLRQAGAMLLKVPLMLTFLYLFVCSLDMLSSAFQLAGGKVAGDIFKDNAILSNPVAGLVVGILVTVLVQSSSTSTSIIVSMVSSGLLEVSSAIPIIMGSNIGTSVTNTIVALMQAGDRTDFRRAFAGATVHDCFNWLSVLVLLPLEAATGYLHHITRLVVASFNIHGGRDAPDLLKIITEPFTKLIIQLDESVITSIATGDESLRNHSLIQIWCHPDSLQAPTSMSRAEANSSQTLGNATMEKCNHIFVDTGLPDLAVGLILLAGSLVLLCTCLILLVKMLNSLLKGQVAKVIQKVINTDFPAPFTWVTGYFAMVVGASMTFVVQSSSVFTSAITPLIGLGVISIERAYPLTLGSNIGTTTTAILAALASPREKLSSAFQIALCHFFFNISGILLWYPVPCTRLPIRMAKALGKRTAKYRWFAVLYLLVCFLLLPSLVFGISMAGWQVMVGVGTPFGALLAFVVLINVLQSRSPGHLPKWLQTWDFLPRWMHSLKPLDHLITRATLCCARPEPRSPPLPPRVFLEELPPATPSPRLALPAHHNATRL
# Assay: Npt2a activity cell based assay, membrane potential dye, CHO T-REx hNpt2a cells
# Details: doxycycline-induced, depolarization by sodium phosphate influx, average or median values if tested more than once
# Description: For measuring Npt2a activity in a cell based assay, a stable CHO cell line with inducible Npt2a expression was generated. Therefore, CHO T-Rex cells (life technologies cat. R718-07) were stably transfected with doxycycline-inducible human NPT2a (pcDNA5TO-hNpt2a). The obtained CHO T-REx hNpt2a cells were routinely cultured in Dulbecco's MEM/F12 (4.5 g/l Glucose, Gibco cat. 21331-020; 500 mL) supplemented with 10 ml Glutamax 100×, Sodium pyruvate (7 mL of 100 mM solution), HEPES (10 mL of 1 M solution), Sodium bicarbonate (10 mL of 7.5% solution), 10% Fetal Bovine Serum Tetracycline free (Clontech cat. 631106, 500 ml), Penicillin-Streptomycin (5 mL of 100× Solution), Blasticidin 10 μg/mL and 400 μg/mL Hygromycin.
# Activity of Npt2a was detected by following depolarization of cellular membrane potential by influx of sodium phosphate using fluorescent membrane potential dye kit BLUE (Molecular devices cat. R8034). For Npt2a activity measurements, CHO T-Rex hNpt2a cells were seeded into 1536 well microtiter plates (GREINER Bio-One cat. 782092) with 750 cells/well in 7 μL/w of complete medium (2% Tetracycline-free FBS, 2% Poly-D-Lysine) without selective agents+Doxycycline 0.5 μg/mL to induce Npt2a gene expression, and grown for 24 h at 37° C., 5% carbon dioxide.
# On the day of experiment a 1×MPdye Loading Solution was freshly prepared by re-suspending 15 mg of Blue MPdye powder in 10 mL of NHE buffer sodium-free (140 mM N-Methyl-D-glucamine, 5.4 mM KCl, 1 mM CaCl2, 11 mM D(±)-Glucose water free, 1.2 mM MgCl2, 10 mM HEPES; pH 7.4 (adjusted with hydrochloric acid); sterile filtered). 5 μl medium was removed from plates by robotic manipulation, then 5 μL/well of sodium-free NHE buffer was added. After incubation for 2 min, this washing step was repeated once. Then, 5 μL/w of buffer was removed from plates and cells were incubated for 5 min at room temperature with 5 μL/w of MPdye Loading Solution (1× in Sodium-free NHE Buffer). Test compounds were added to the cells at final test concentrations between 50 μM and 1 nM (0.6 μL/well, final DMSO 0.6%, prepared in MPDye Loading Solution) and incubated for 5 min at room temperature.
# Plates were analyzed with an in house CCD camera device using a λexc 510-545 nm/λem 565-625 nm filter. Fluorescence was detected for 15 sec (background measurement M1). Activity of Npt2a was triggered by addition of 2 μL/well of 30 mM Na+ and 1 mM phosphate (prepared in a mixture of NHE Buffer Na+ free and NHE Buffer 140 mM Na+). Fluorescence was followed for 2-3 min (depolarization measurement M2). Data was normalized to cell number and dye loading efficiency by calculating M2/M1. This quotient was plotted against test compound concentration. Graph Pad Prism or equivalent in house software was used to create sigmoidal dose-response curves (variable slope) and determine IC50 values.
row,Compound,IC50 [nM]
1,"CCc1c(Nc2cc(-n3nc(C)c(C(=O)N4CC(C)OC(C)C4)c3C)ncn2)nn(C)c1-c1ccc(F)cc1 (racemic) [Example 74, (±)-[syn-2,6-dimethylmorpholin-4-yl][1-(6-{[4-ethyl-5-(4-fluorophenyl)-1-methyl-1H-pyrazol-3-yl]amino}pyrimidin-4-yl)-3,5-dimethyl-1H-pyrazol-4-yl]methanone]",1260
2,"CCc1c(Nc2cc(-n3nc(C)c(C(=O)N4CCCC4C)c3C)ncn2)nn(C)c1-c1ccc(F)cc1 (racemic) [Example 76, (±)-[1-(6-{[4-ethyl-5-(4-fluorophenyl)-1-methyl-1H-pyrazol-3-yl]amino}pyrimidin-4-yl)-3,5-dimethyl-1H-pyrazol-4-yl](2-methylpyrrolidin-1-yl)methanone]",190
3,"CCc1c(Nc2cc(-n3nc(C)c4c3CCCC4(C)O)ncn2)nn(C)c1-c1ccc(F)cc1 (racemic) [Example 134, (±)-1-(6-{[4-ethyl-5-(4-fluorophenyl)-1-methyl-1H-pyrazol-3-yl]amino}pyrimidin-4-yl)-3,4-dimethyl-4,5,6,7-tetrahydro-1H-indazol-4-ol (Racemate)]",180
4,"CCc1c(Nc2cc(-n3nc(C)c4c3CCC4(C)O)ncn2)nn(C)c1-c1ccc(F)cc1 (racemic) [Example 146, (rac)-1-(6-{[4-ethyl-5-(4-fluorophenyl)-1-methyl-1H-pyrazol-3-yl]amino}pyrimidin-4-yl)-3,4-dimethyl-1,4,5,6-tetrahydrocyclopenta[c]pyrazol-4-ol]",126
5,"Cc1nn(-c2cc(Nc3c(C)c(-c4ccc(C#N)cc4)nn3C)ncn2)c2c1C(C)(O)CC2 (racemic) [Example 227, 4-[5-({6-[(±)-4-hydroxy-3,4-dimethyl-5,6-dihydrocyclopenta[c]pyrazol-1(4H)-yl]pyrimidin-4-yl}amino)-1,4-dimethyl-1H-pyrazol-3-yl]benzonitrile]",16
6,"Cc1nn(-c2cc(Nc3c(C)c(-c4ccc(F)cc4)nn3CC3CC3)ncn2)c(C)c1C(C)O (racemic) [Example 249, (±)-1-[1-(6-{[1-(cyclopropylmethyl)-3-(4-fluorophenyl)-4-methyl-1H-pyrazol-5-yl]amino}pyrimidin-4-yl)-3,5-dimethyl-1H-pyrazol-4-yl]ethanol]",22
7,"CCC(O)c1c(C)nn(-c2cc(Nc3c(C)c(-c4ccc(F)cc4)nn3CC3CC3)ncn2)c1C (racemic) [Example 280, (±)-1-[1-(6-{[1-(cyclopropylmethyl)-3-(4-fluorophenyl)-4-methyl-1H-pyrazol-5-yl]amino}pyrimidin-4-yl)-3,5-dimethyl-1H-pyrazol-4-yl]propan-1-ol (Racemic)]",16
8,"Cc1nn(-c2cc(Nc3c(C)c(-c4ccc(F)cc4)nn3CC3CC3)ncn2)c2c1C(C)(O)CC2 (racemic) [Example 283, (±)-1-(6-{[1-(cyclopropylmethyl)-3-(4-fluorophenyl)-4-methyl-1H-pyrazol-5-yl]amino}pyrimidin-4-yl)-3,4-dimethyl-1,4,5,6-tetrahydrocyclopenta[c]pyrazol-4-ol (Racemate)]",21
9,"Cc1nn(-c2cc(Nc3c(C)c(-c4ccc(C#N)cc4)nn3CC3CC3)ncn2)c(C)c1C(C)(O)C(F)(F)F (racemic) [Example 322, (±)-4-{1-(cyclopropylmethyl)-5-[(6-{3,5-dimethyl-4-[(2S)-1,1,1-trifluoro-2-hydroxypropan-2-yl]-1H-pyrazol-1-yl}pyrimidin-4-yl)amino]-4-methyl-1H-pyrazol-3-yl}benzonitrile (Racemate)]",4
10,"Cc1cc(C)n(-c2cc(Nc3c(C)c(-c4ccc(F)cc4)nn3CC(C)(O)C3CC3)ncn2)n1 (racemic) [Example 325, (±)-2-cyclopropyl-1-[5-{[6-(3,5-dimethyl-1H-pyrazol-1-yl)pyrimidin-4-yl]amino}-3-(4-fluorophenyl)-4-methyl-1H-pyrazol-1-yl]propan-2-ol (Racemate)]",1100
11,"COC(C)c1c(C)nn(-c2cc(Nc3c(C)c(-c4ccc(F)cc4)nn3CC3CC3)ncn2)c1C (racemic) [Example 326, (±)-N-[1-(cyclopropylmethyl)-3-(4-fluorophenyl)-4-methyl-1H-pyrazol-5-yl]-6-{4-[1-methoxyethyl]-3,5-dimethyl-1H-pyrazol-1-yl}pyrimidin-4-amine (Racemic)]",4
12,"COc1c(-c2ccc(C#N)cc2)nn(CC2CC2)c1Nc1cc(-n2nc(C)c(C(C)O)c2C)ncn1 (racemic) [Example 331, (±)-4-{1-(cyclopropylmethyl)-5-[(6-{4-[(1S)-1-hydroxyethyl]-3,5-dimethyl-1H-pyrazol-1-yl}pyrimidin-4-yl)amino]-4-methoxy-1H-pyrazol-3-yl}benzonitrile]",2800
13,"COc1c(-c2ccc(C#N)cc2)nn(CC2CC2)c1Nc1cc(-n2nc(C)c(C(C)OC)c2C)ncn1 (racemic) [Example 333, (±)-4-{1-(cyclopropylmethyl)-4-methoxy-5-[(6-{4-[1-methoxyethyl]-3,5-dimethyl-1H-pyrazol-1-yl}pyrimidin-4-yl)amino]-1H-pyrazol-3-yl}benzonitrile]",54
14,"COc1c(-c2ccc(F)cc2)nn(CC2CC2)c1Nc1cc(-n2nc(C)c(C(C)O)c2C)ncn1 (racemic) [Example 336, (±)-1-[1-(6-{[1-(cyclopropylmethyl)-3-(4-fluorophenyl)-4-methoxy-1H-pyrazol-5-yl]amino}pyrimidin-4-yl)-3,5-dimethyl-1H-pyrazol-4-yl]ethanol]",1650
15,"COC(C)c1c(C)nn(-c2cc(Nc3c(C)c(-c4ccc(C#N)cc4)nn3C)ncn2)c1C (racemic) [Example 338, (±)-4-{5-[(6-{4-[1-methoxyethyl]-3,5-dimethyl-1H-pyrazol-1-yl}pyrimidin-4-yl)amino]-1,4-dimethyl-1H-pyrazol-3-yl}benzonitrile]",7
16,"Cc1nn(-c2cc(Nc3c(C)c(-c4ccc(C#N)cc4)nn3CC3CC3)ncn2)c(C)c1C(C)O (racemic) [Example 341, (±)-4-{1-(cyclopropylmethyl)-5-[(6-{4-[1-hydroxyethyl]-3,5-dimethyl-1H-pyrazol-1-yl}pyrimidin-4-yl)amino]-4-methyl-1H-pyrazol-3-yl}benzonitrile]",17
17,"CCOC(C)c1c(C)nn(-c2cc(Nc3c(C)c(-c4ccc(C#N)cc4)nn3CC3CC3)ncn2)c1C (racemic) [Example 342, (±)-4-{1-(cyclopropylmethyl)-5-[(6-{4-[1-ethoxyethyl]-3,5-dimethyl-1H-pyrazol-1-yl}pyrimidin-4-yl)amino]-4-methyl-1H-pyrazol-3-yl}benzonitrile]",2
18,"COC(C)c1c(C)nn(-c2cc(Nc3nn(C)c(-c4ccc(F)cc4)c3C)ncn2)c1C (racemic) [Example 343, (±)-N-[5-(4-fluorophenyl)-1,4-dimethyl-1H-pyrazol-3-yl]-6-{4-[1-methoxyethyl]-3,5-dimethyl-1H-pyrazol-1-yl}pyrimidin-4-amine]",6
19,"Cc1nn(-c2cc(Nc3c(C)c(-c4ccc(C#N)cc4)nn3CC3CC3)ncn2)c(C)c1C(O)C(F)(F)F (racemic) [Example 358, 4-{1-(cyclopropylmethyl)-5-[(6-{3,5-dimethyl-4-[(±)-2,2,2-trifluoro-1-hydroxyethyl]-1H-pyrazol-1-yl}pyrimidin-4-yl)amino]-4-methyl-1H-pyrazol-3-yl}benzonitrile]",10
